Source: US6017883A, “Composition and methods for the inhibition of phagocytes” (Research Corporation Technologies, Inc., priority 1998, dated 2000)
Where no end group is shown, it is not given here.

Experiments:
[1] = system: PMN; conditions: pertussis toxin pretreatment of indo-loaded PMN
[2] = system: PMN; experiment: fMLP-induced PMN calcium transients; assay type: cell-based, human; conditions: pertussis toxin pretreatment of indo-loaded PMN
[3] = system: PMN; experiment: PMN viability by LDH release; conditions: concentrations that inhibited chemotaxis and oxidant production
Experimental: PMN viability after exposure to NIP (seq id no:1) or control peptide for varying amounts of time was assessed by measuring LDH release using a commercially available kit (Sigma).

pertussis toxin
ionomycin-induced rise in cytosolic calcium [1]: no effect | rise in cytosolic calcium concentration induced by 1 μM fMLP [2]: Attenuation

REGSYFFGDNA [NIP, Arg-Glu-Gly-Ser-Tyr-Phe-Phe-Gly-Asp-Asn-Ala]
cellular viability as determined by LDH release [3]: did not significantly alter cellular viability
